Measured values: ChEMBL document CHEMBL1201862, “PubChem BioAssay data set” (2004)
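Protocol summary: plate cells (96-well), add compound at 5 concentrations, incubate 48 h, interpolate endpoints linearly. Abbreviation: GI50, concentration required for 50% inhibition of growth.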 Calls of active or inactive are those of the source. Rule as the data show it: active = GI50 up to about 1.1 µM and inactive = higher.

Key:
Test in all cases: NCI anticancer screen, dose series, 48 h
[1] = system: ACHN
[2] = system: HCC 2998
[3] = system: HCT-15
[4] = system: HT-29
[5] = system: IGROV-1
[6] = system: MCF7
[7] = system: MDA-MB-435
[8] = system: MDA-N
[9] = system: Malme-3M
[10] = system: NCI/ADR-RES
[11] = system: OVCAR-3
[12] = system: OVCAR-4
[13] = system: RXF 393
[14] = system: SF-539
[15] = system: SK-MEL-28
[16] = system: SK-OV-3
[17] = system: SN12C
[18] = system: SNB-19
[19] = system: SNB-75
[20] = system: SW-620

| Structure (SMILES) | GI50 [1] | GI50 [2] | GI50 [3] [µM] | GI50 [4] | GI50 [5] | GI50 [6] | GI50 [7] | GI50 [8] | GI50 [9] | GI50 [10] | GI50 [11] | GI50 [12] | GI50 [13] | GI50 [14] | GI50 [15] | GI50 [16] | GI50 [17] | GI50 [18] | GI50 [19] | GI50 [20] |
| --- | --- | --- | --- | --- | --- | --- | --- | --- | --- | --- | --- | --- | --- | --- | --- | --- | --- | --- | --- | --- |
| COc1cccc(N2C(=O)C3CC(CC(C)(C)C)c4c([nH]c5ccccc45)C3C2=O)c1 (stereo not given) | > 10 µM (inactive) | > 10 µM (inactive) | > 10 | > 10 µM (inactive) | > 10 µM (inactive) | 8.55 µM (inactive) | > 10 µM (inactive) | > 10 µM (inactive) | 5.9 µM (inactive) | > 10 µM (inactive) | > 10 µM (inactive) | 2.62 µM (inactive) | > 10 µM (inactive) | 2.56 µM (inactive) | > 10 µM (inactive) | > 10 µM (inactive) | 6 µM (inactive) | > 10 µM (inactive) | 1.84 µM (inactive) | > 10 µM (inactive) |
| Cc1cc(=O)n2nc(CSc3nnc(Sc4cc(O)ccc4O)s3)sc2n1 | > 100 µM (inactive) | > 100 µM (inactive) | > 100 | > 100 µM (inactive) | > 100 µM (inactive) | 14.2 µM (inactive) | 18.5 µM (inactive) | 18.6 µM (inactive) | 40.3 µM (inactive) | > 100 µM (inactive) | 34.4 µM (inactive) | 54.7 µM (inactive) | 51.6 µM (inactive) | > 100 µM (inactive) | 54.1 µM (inactive) | > 100 µM (inactive) | 58.1 µM (inactive) | > 100 µM (inactive) | > 100 µM (inactive) | 22.8 µM (inactive) |
| CCOC(=O)CCC(NC(=O)N1CCN(c2c(C)nc(C)nc2O)CC1)C(=O)OCC (stereo not given) | > 100 µM (inactive) | > 100 µM (inactive) | > 100 | > 100 µM (inactive) | > 100 µM (inactive) | > 100 µM (inactive) | > 100 µM (inactive) | > 100 µM (inactive) | > 100 µM (inactive) | > 100 µM (inactive) | > 100 µM (inactive) | > 100 µM (inactive) | > 100 µM (inactive) | > 100 µM (inactive) | > 100 µM (inactive) | > 100 µM (inactive) | > 100 µM (inactive) | > 100 µM (inactive) | < 0.01 µM (active) | > 100 µM (inactive) |
| CCOC(=O)C1CCCCN1C(=O)Cc1c[nH]c2ccccc12 (stereo not given) | 71.4 µM (inactive) | 77.8 µM (inactive) | 87.7 | 72.9 µM (inactive) | 57.7 µM (inactive) | 37.5 µM (inactive) | 34.4 µM (inactive) | 49.8 µM (inactive) | 57.4 µM (inactive) | 69.7 µM (inactive) | 52.6 µM (inactive) | 33.9 µM (inactive) | 76.9 µM (inactive) | > 100 µM (inactive) | > 100 µM (inactive) | > 100 µM (inactive) | > 100 µM (inactive) | > 100 µM (inactive) | 40 µM (inactive) | 94.8 µM (inactive) |
| CCOC(=O)C(NC(=O)CC(C)C)(Nc1ccc(C(F)(F)F)cc1)C(F)(F)F (stereo not given) | 14.5 µM (inactive) | 32.8 µM (inactive) | 29 | 21 µM (inactive) | 22.2 µM (inactive) | > 100 µM (inactive) | > 100 µM (inactive) | 32.6 µM (inactive) | 96.4 µM (inactive) | 22.6 µM (inactive) | 13.4 µM (inactive) | 35.4 µM (inactive) | 35.4 µM (inactive) | > 100 µM (inactive) | > 100 µM (inactive) | > 100 µM (inactive) | > 100 µM (inactive) | > 100 µM (inactive) | 6.31 µM (inactive) | 57.8 µM (inactive) |
| CC(=O)OC[C@@]1(C)[C@@H]2[C@@H]3[C@@]4(CO[C@]3(C)C(=O)[C@@]3(OC(C)=O)C[C@H](C)[C@H](OC(C)=O)[C@@H]3[C@H]4OC(C)=O)[C@H](OC(=O)c3ccccc3)C[C@@H]21 | > 100 µM (inactive) | > 100 µM (inactive) | > 100 | 89.9 µM (inactive) | > 100 µM (inactive) | 81.8 µM (inactive) | > 100 µM (inactive) | > 100 µM (inactive) | > 100 µM (inactive) | > 100 µM (inactive) | > 100 µM (inactive) | > 100 µM (inactive) | > 100 µM (inactive) | > 100 µM (inactive) | > 100 µM (inactive) | > 100 µM (inactive) | > 100 µM (inactive) | > 100 µM (inactive) | > 100 µM (inactive) | 78.5 µM (inactive) |
| CC1(C)C(/C=N\O)=[N+]([O-])C(C)(C)N1O | > 100 µM (inactive) | > 100 µM (inactive) | > 100 | 54.3 µM (inactive) | > 100 µM (inactive) | > 100 µM (inactive) | 25.2 µM (inactive) | 52.7 µM (inactive) | > 100 µM (inactive) | > 100 µM (inactive) | 49.7 µM (inactive) | > 100 µM (inactive) | > 100 µM (inactive) | > 100 µM (inactive) | > 100 µM (inactive) | > 100 µM (inactive) | > 100 µM (inactive) | > 100 µM (inactive) | > 100 µM (inactive) | > 100 µM (inactive) |
| COc1cc(NCCC2CCCCN2)c2ncccc2c1 (stereo not given) | > 100 µM (inactive) | 16.4 µM (inactive) | > 74.3 | 41.7 µM (inactive) | 8.87 µM (inactive) | 0.31 µM (active) | 26.4 µM (inactive) | 36.3 µM (inactive) | 26.9 µM (inactive) | > 100 µM (inactive) | 4.63 µM (inactive) | > 70.5 µM (inactive) | 22.2 µM (inactive) | > 100 µM (inactive) | 29.2 µM (inactive) | > 100 µM (inactive) | > 49.4 µM (inactive) | > 100 µM (inactive) | 60.3 µM (inactive) | > 70.6 µM (inactive) |
| CC1OC(c2ccc3c(c2O)C(=O)C2=C(C3=O)C3(O)C(=O)CC(C)(O)CC3(O)C=C2)CC(O)C1O (stereo not given) | 13.6 µM (inactive) | 15.5 µM (inactive) | 14.5 | 5.4 µM (inactive) | 13.4 µM (inactive) | 2.79 µM (inactive) | 10.6 µM (inactive) | 3.23 µM (inactive) | 2.99 µM (inactive) | 19.5 µM (inactive) | 5.35 µM (inactive) | 13.7 µM (inactive) | 11.4 µM (inactive) | 17.7 µM (inactive) | 15.7 µM (inactive) | 41.3 µM (inactive) | 15 µM (inactive) | 18.4 µM (inactive) | 18.2 µM (inactive) | 7.98 µM (inactive) |
